Consider two compounds from publication doi:10.1101/2024.10.14.618300v1 (biorxiv, 2024).

pKd, pKi: −log10 of the molar value.

Assay [1] deals with T1, mTSPO (recombinant mouse translocator protein) (Mus musculus, UniProt P50637). Description: […] NMR chemical shift titration. The class given is binding.
Assay [2] concerns the target T1, mTSPO (recombinant mouse translocator protein). Description: […] NMR competition with RF3458. In kind it is binding.

On to `CN(C(=O)[C@H](Cc1ccc(F)cc1)NC(=O)c1ccccc1)c1ccccc1` [4b, RF3458], for which the pKd in assay [1] was roughly 5.30. As to `CC[C@@H](C)N(C)C(=O)c1cc2ccccc2c(-c2ccccc2Cl)n1` [(R)-PK 11195, 1-(2-Chlorophenyl)-N-methyl-N-(1-methylpropyl)-3-isoquinolinecarboxamide], the pKi in assay [2] was roughly 4.05.

A word on the pKd: it is −log10 of the Kd, conventionally taken in molar units. As usually defined, the pKi is the negative decadic logarithm of the Ki, by convention in mol/L.
